Assay results from article PMC12758328 (Virulence, 2025).

Tests used:
SpyGapDH = target: T1, SpyGapDH (Streptococcus pyogenes, UniProt P0C0G7); experiment: NADH formation at […] nm; format: biochemical; conditions: 10 mM NAD+, 10 mM phosphate, 200 mM Tricine pH 8.5
T1 sequence (P0C0G7 2-336): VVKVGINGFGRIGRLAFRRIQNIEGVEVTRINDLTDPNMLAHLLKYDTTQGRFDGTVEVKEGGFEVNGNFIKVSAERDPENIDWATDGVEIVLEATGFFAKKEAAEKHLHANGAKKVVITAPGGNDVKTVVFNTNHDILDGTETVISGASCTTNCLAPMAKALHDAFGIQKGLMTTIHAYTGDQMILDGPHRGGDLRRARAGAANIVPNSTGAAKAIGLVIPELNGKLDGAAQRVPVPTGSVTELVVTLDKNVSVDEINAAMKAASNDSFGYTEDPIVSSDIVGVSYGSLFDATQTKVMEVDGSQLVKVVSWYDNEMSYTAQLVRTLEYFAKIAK

SpyGapN = target: T2, SpyGapN (Streptococcus pyogenes, UniProt Q99Z67); experiment: NADPH formation at […] nm; format: biochemical; conditions: for inhibition at 40000 µM: read-out: % inhibition at 40 mM
T2 sequence (Q99Z67 1-475): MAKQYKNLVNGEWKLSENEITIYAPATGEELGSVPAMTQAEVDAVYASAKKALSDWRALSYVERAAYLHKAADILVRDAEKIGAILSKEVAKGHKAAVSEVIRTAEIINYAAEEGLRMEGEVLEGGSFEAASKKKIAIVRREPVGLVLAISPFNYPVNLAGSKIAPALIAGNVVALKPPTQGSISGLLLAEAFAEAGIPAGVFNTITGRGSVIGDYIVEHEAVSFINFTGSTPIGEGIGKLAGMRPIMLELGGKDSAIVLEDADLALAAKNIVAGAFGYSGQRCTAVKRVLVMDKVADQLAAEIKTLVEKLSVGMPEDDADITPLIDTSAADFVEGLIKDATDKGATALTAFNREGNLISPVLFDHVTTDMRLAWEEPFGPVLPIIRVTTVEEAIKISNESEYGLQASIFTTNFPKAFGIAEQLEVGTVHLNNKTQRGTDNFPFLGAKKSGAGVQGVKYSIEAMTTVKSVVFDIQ

Compound: O=CC(O)COP(=O)(O)O (racemic) [DL-glyceraldehyde 3-phosphate]
- NADH formation at 340 nm (SpyGapDH): To measure the GapDH activity, the assay mixture contained

Compound: Nc1cncnc1 [R65, Pyrimidine-5-amine]
- inhibition at 40000 µM (SpyGapN): ~42%

Compound: Oc1ccnnc1 [R76, 4-Hydroxypyridazine]
- inhibition at 40000 µM (SpyGapN): ~16%

Compound: O=S(=O)(O)C(O)C(O)S(=O)(=O)O (centres unmarked) [compound 26, 1,2-dihydroxyethane-1,2-disulfonate]
- inhibition at 8000 µM (SpyGapN; read-out: % inhibition at 8 mM): ~50%

Compound: (ethoxyoxydophosphanyl)formate [compound 32]
- % inhibition at 8 mM (SpyGapN; 2 mM DL-G3P, 10 mM NADP+, 200 mM Tricine pH 8.5): ~ 25%
